Publication PMC8596132 (Advanced Science, 2021)
Where two headings read alike, the source gives them in different places. Bridge positions count the residues as written; N and C are the ends. Peptide text beside a SMILES is read from it.

Assays:
[1] = molecular target: T1, mouse TRPM8 channel (Mus musculus, UniProt Q8R4D5); experiment: whole-cell patch-clamp recording, menthol activation of TRPM8; format: cell-based
T1 construct: expressed in transfected cells; host or cells: HEK293 / HEK293T cells
T1 sequence (Q8R4D5 whole entry): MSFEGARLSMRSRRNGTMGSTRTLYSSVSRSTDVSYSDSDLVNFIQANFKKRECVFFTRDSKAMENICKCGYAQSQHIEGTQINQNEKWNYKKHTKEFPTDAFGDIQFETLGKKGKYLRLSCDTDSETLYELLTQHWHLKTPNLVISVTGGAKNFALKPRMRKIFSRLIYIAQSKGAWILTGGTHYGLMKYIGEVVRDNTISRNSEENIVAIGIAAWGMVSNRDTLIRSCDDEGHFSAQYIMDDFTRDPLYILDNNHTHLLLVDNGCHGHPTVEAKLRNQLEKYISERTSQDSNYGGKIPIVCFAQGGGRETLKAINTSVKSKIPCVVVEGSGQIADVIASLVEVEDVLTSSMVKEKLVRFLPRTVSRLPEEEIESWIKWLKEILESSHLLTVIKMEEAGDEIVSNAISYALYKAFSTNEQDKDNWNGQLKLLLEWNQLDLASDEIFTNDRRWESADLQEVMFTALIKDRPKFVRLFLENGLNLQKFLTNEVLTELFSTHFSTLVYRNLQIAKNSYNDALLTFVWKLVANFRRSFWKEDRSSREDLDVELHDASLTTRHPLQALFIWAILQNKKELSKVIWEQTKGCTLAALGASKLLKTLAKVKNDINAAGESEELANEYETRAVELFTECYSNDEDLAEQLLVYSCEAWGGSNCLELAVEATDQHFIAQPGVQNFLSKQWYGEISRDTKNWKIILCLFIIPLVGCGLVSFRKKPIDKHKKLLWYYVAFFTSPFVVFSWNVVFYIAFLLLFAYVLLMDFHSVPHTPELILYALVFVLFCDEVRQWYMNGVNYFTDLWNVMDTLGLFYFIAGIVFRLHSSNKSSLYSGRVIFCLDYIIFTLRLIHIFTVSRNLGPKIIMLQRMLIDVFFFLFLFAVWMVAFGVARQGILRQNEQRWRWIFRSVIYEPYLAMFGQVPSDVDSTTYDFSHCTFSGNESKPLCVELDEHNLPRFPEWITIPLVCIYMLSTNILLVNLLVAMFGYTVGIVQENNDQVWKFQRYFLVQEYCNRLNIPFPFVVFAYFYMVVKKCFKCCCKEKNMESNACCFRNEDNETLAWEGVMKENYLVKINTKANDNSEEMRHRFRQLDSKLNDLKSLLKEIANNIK
Protocol: HEK293T cells were cultured in Dulbecco's modified Eagle's medium with 10% fetal bovine serum, penicillin (100 U mL^−1), and streptomycin ([…]) at 37 °C with 5% CO2. Transient transfection was conducted by using Lipofectamine 2000 (Invitrogen) and following the instruction manual.
(§1) Electrophysiological experiments were performed between 24 and 48 h after transfections. Specifically, single‐channel recordings were conducted about […] after transfection.
Patch‐clamp recordings were performed with a HEKA EPC10 amplifier with PatchMaster software (HEKA) in the whole‐cell, inside‐out, or outside‐out configuration. For whole cell recordings, patch pipettes were prepared from borosilicate glass and fire‐polished to a resistance of ≈3–6 MΩ. Serial resistance was compensated by 60%. Whole‐cell recordings were performed at ±80 mV. For single‐channel recordings, patch pipettes were fire‐polished to a higher resistance of 6–8 MΩ. Current signal was sampled at 10 kHz and filtered at 2.9 kHz. […]
(§2) There were different solutions prepared for different ion channels current recordings. […] TRPM2 currents were recorded with the help of standard bath solution of 147 × 10^−3 M NaCl, 2 × 10^−3 M KCl, 1 × 10^−3 M MgCl2, 10 × 10^−3 M HEPES, 2 × 10^−3 M CaCl2, 13 × 10^−3 M glucose, pH = 7.4 and the pipette solutions of 147 × 10^−3 M NaCl, 1 × 10^−3 M MgCl2, 10 × 10^−3 M HEPES, pH = 7.4. […]

[2] = molecular target: T2, TRPM8 channel (Mus musculus, UniProt Q8R4D5); experiment: single-channel patch-clamp recording, menthol activation (outside-out); format: cell-based; conditions: +80 mV
T2 construct: expressed in transfected cells; host or cells: HEK293 / HEK293T cells
T2 sequence (Q8R4D5 whole entry): as above
Protocol: as §1
(§3) Patch‐clamp recordings were performed with a HEKA EPC10 amplifier with PatchMaster software (HEKA) in the whole‐cell, inside‐out, or outside‐out configuration. For whole cell recordings, patch pipettes were prepared from borosilicate glass and fire‐polished to a resistance of ≈3–6 MΩ. Serial resistance was compensated by 60%. Whole‐cell recordings were performed at ±80 mV. For single‐channel recordings, patch pipettes were fire‐polished to a higher resistance of 6–8 MΩ. Current signal was sampled at 10 kHz and filtered at 2.9 kHz. Membrane potential was clamped at +80 mV. All recordings were performed at room temperature (22 °C) with the maximum variation of 1 °C.
There were different solutions prepared for different ion channels current recordings. For TRPM8, TRPV1, TRPV2, TRPV3, and TRPA1 channels recording, the standard bath and pipette solution contained: 130 × 10^−3 M NaCl, 0.2 × 10^−3 M EDTA, and 3 × 10^−3 M HEPES, pH = 7.2. For TRPM4 channels recording, solutions with 130 × 10^−3 M NaCl and 3 × 10^−3 M HEPES, pH = 7.2 were used as standard bath solution. The pipette solutions required 500 × 10^−6 M CaCl2 mixing with 130 × 10^−3 M NaCl and 3 × 10^−3 M HEPES, pH = 7.2. TRPM2 currents were recorded with the help of standard bath solution of 147 × 10^−3 M NaCl, 2 × 10^−3 M KCl, 1 × 10^−3 M MgCl2, 10 × 10^−3 M HEPES, 2 × 10^−3 M CaCl2, 13 × 10^−3 M glucose, pH = 7.4 and the pipette solutions of 147 × 10^−3 M NaCl, 1 × 10^−3 M MgCl2, 10 × 10^−3 M HEPES, pH = 7.4. For NaV1.5, NaV1.7 channels, the standard bath solution was 140 × 10^−3 M NaCl, 3 × 10^−3 M KCl, 1 × 10^−3 M MgCl2, 1 × 10^−3 M CaCl2, 10 × 10^−3 M HEPES, pH = 7.2 and standard pipette solution was 140 × 10^−3 M CsF, 1 × 10^−3 M EGTA, 10× 10^−3 M NaCl, 10 × 10^−3 M MgCl2, 3 × 10^−3 M KCl, pH = 7.2. To evoke sodium channel currents, a holding potential of −80 mV was used with a testing pulse to +10 mV. […]

[3] = molecular target: T3, TRPV2 (Homo sapiens, UniProt Q9Y5S1); experiment: whole-cell recording, TRPV2 ligand activation; format: cell-based; conditions: read-out: IC50, inhibition of TRPV2
T3 construct: expressed in transfected cells; host or cells: HEK293T
T3 sequence (Q9Y5S1 1-764): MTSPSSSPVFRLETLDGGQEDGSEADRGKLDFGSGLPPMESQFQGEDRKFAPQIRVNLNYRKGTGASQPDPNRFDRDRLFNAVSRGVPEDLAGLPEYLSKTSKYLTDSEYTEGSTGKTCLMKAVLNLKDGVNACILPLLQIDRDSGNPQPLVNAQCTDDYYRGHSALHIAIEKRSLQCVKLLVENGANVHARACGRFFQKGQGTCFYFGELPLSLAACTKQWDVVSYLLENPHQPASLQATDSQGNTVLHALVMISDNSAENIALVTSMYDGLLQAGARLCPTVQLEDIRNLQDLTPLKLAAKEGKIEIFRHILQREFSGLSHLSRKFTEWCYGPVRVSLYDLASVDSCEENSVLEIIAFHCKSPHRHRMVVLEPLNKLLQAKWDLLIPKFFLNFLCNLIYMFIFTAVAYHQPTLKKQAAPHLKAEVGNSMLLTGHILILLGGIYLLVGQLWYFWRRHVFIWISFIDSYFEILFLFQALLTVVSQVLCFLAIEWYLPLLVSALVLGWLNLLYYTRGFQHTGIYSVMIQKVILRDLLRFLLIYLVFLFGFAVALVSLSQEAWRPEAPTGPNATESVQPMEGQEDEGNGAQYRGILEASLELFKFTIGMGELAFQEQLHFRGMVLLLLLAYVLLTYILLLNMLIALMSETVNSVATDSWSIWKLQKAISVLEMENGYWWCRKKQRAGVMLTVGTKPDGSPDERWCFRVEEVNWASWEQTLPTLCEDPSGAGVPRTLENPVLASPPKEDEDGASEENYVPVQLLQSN
Protocol: as §3
as §2, with “recordings. For TRPM8, TRPV1, TRPV2, TRPV3, and TRPA1 channels recording, the standard bath and pipette solution contained: 130 × 10^−3 M NaCl, 0.2 × 10^−3 M EDTA, and 3 × 10^−3 M HEPES, pH = 7.2. For TRPM4 channels recording, solutions with 130 × 10^−3 M NaCl and 3 × 10^−3 M HEPES, pH = 7.2 were used as standard bath solution.” for “recordings.”

[4] = body temperature measurement; format: in vivo; conditions: mice, i.v. 30 µg g^−1, rectal temperature up to 24 h, 5-9 animals
Protocol: Adult CD1 mice (male, 6–8 weeks) were used for behavioral and primary cultures of DRG neurons studies. Mice were group‐housed under the 12 h light‐dark cycle with access to standard food and water ad libitum. All the animal procedures were approved by the Institutional Animal Care & Use Committee (IACUC) of Zhejiang University.
A digital thermometer (FT3400) was used for body temperature measurement. Adult CD1 male mice were placed into an environmental room maintained at a constant temperature of 22 ± 1 °C. Body temperature was recorded using a rectal probe for mice (FT3400), which was inserted ≈2 cm from the anus. Body temperature was measured before treatment (baseline, BL) and at 5 min, 15 min, 0.5,1,2, 6, and 24 h following DeC‐1.2 (30 mg kg^−1, i.v.) administration.

Question: For C[C@@H]1NC(=O)[C@H](C)NC(=O)[C@H](CCCNC(=N)N)NC(=O)[C@H](CO)NC(=O)[C@H](CC(N)=O)NC(=O)[C@H](CCCNC(=N)N)NC(=O)[C@@H](N)CSSC[C@@H](C(=O)O)NC(=O)[C@H](CCCCN)NC(=O)[C@H](CCC(N)=O)NC(=O)[C@H](CO)NC(=O)[C@H](CC(=O)O)NC(=O)[C@H](Cc2c[nH]cn2)NC1=O [DeC‐1.1] (H-CRNSRAAHDSQKC-OH; disulfide 1-13), which IC50 ([1]; SEM) is on record?
Answer: 133 ± 73.5 µM

Question: Which results are given for C[C@@H]1NC(=O)[C@H](CCCNC(=N)N)NC(=O)[C@H](CC(=O)O)NC(=O)[C@H](CCCNC(=N)N)NC(=O)[C@H](CCCNC(=N)N)NC(=O)[C@@H](N)CSSC[C@@H](C(=O)O)NC(=O)[C@H](CCCNC(=N)N)NC(=O)[C@H](CCC(N)=O)NC(=O)[C@H](CCCNC(=N)N)NC(=O)[C@H](Cc2ccc(O)cc2)NC(=O)[C@H](Cc2c[nH]cn2)NC(=O)[C@H](CCCNC(=N)N)NC1=O [DeC‐1.2] (H-CRRDRARHYRQRC-OH; disulfide 1-13)?
Answer: IC50 ([1]; whole-cell patch clamp, TRPM8 expressed in HEK293 cells, −80 mV, 22 °C, n = 3, mean ± SEM, read-out: IC50, inhibition of menthol-induced TRPM8 activation): 0.0045 ± 0.003 µM; open probability of TRPM8 with DeC-1.2 plus menthol ([2]; outside-out, menthol 1 × 10^−3 M + DeC-1.2 100 × 10^−6 M, mean ± SEM, n = 5, SEM): 18.83 ± 1.92%; IC50 [3]: ~10 µM; effect on body temperature [4]: did not significantly alter body temperature

Question: What does the source list for CC1CCC(C(C)C)C(O)C1 (stereo not shown) [menthol]?
Answer: maximum open probability of TRPM8 activation by menthol ([2]; saturating menthol 1 × 10^−3 M alone): about 70%; single-channel conductance of TRPM8 with menthol ([2]; saturating menthol 1 × 10^−3 M alone, mean ± SEM, n = 3, SEM): 58.83 ± 1.85 pS
